# Reference: patent publication US20080153791A1, “11Beta -Hydroxysteroid Dehydrogenases” (onpharm GmbH, priority 2005, published 2008)
# Where two headings read alike, the source gives them in different places.
# Assays:
# 17β-HSD1 = molecular target: T1, 17β-HSD1 (Homo sapiens, UniProt P14061); experiment: Inhibition of 17β-HSD1; type: biochemical
# T1 sequence (P14061 1-328): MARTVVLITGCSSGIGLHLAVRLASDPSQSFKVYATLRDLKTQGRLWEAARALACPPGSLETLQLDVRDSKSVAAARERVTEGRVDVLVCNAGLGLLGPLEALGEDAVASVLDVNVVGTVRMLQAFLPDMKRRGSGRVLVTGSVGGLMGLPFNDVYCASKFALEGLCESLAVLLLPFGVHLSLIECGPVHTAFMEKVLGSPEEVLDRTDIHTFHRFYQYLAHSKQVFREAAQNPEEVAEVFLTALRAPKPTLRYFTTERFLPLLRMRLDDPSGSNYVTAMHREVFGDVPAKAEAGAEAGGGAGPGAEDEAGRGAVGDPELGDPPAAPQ
# human 11β-HSD1 [1] = molecular target: T2, human 11β-HSD1 (Homo sapiens, UniProt P28845); experiment: 11β-HSD1 reductase activity (cortisone to cortisol) in lysates of stably transfected HEK-293 cells; type: biochemical; conditions: for remaining activity at 20 µM: 20 μM compound, 100 nM cortisone, HEK-293 cell lysates, read-out: 11β-HSD1 % of control
# T2 construct: expressed in transfected cells
# Procedure: (§1) Cells were grown in 10 cm dishes to 80% confluence and incubated for 16 h in steroid-free medium (charcoal-treated fetal calf serum (FCS) from HyClone, Logan, Utah). Cells were rinsed once with phosphate-buffered saline (PBS), detached and centrifuged for 3 min at 150×g. The supernatant was removed and the cell pellet quick-frozen in a dry-ice ethanol bath. At the day of experiment, cell pellets were resuspended in buffer TS2 (100 mM NaCl, 1 mM EGTA, 1 mM EDTA, 1 mM MgCl2, 250 mM sucrose, 20 mM Tris-HCl, pH 7.4), sonicated and activities determined immediately. The rate of conversion of cortisol to cortisone or the reverse reaction was determined in 96-well optical PCR reaction plates (Applied Biosystems, Foster City, Calif.) in a final volume of 22 μl, and the tubes were capped during the reaction to avoid evaporation.
# Reactions were initiated simultaneously by adding 10 μl of cell lysate and 12 μl of TS2 buffer containing the appropriate concentration of the inhibitory compound to be tested, NADPH, 30 nCi of [1,2,6,7-^3H]-cortisone and unlabeled cortisone, whereby final concentrations were 400 μM NADPH and 100 nM cortisone. Activities were determined immediately after cell disruption by measuring the conversion of radiolabeled cortisone to cortisol for 10 min.
# (§2) Enzyme kinetics were analyzed by non-linear regression using Data Analysis Toolbox (MDL Information Systems Inc.) assuming first-order rate kinetics. Data represent mean ±SD of four to five independent experiments.
# (§3) Assay with 20 μM of the corresponding compound in the reaction mixture, added simultaneously with the substrate:
# (§4) Determination of IC50 values, using 7 different inhibitor concentrations at factor 2 intervals: […]
# human 11β-HSD2 [2] = molecular target: T3, human 11β-HSD2 (Homo sapiens, UniProt P80365); experiment: 11β-HSD2 oxidase activity (cortisol to cortisone) in lysates of stably transfected HEK-293 cells; type: biochemical; conditions: for remaining activity at 20 µM: 20 μM compound, 25 nM cortisol, HEK-293 cell lysates, read-out: 11β-HSD2 % of control; for IC50: cell lysates, 7 inhibitor concentrations at factor 2 intervals
# T3 construct: expressed in transfected cells
# T3 sequence (P80365 1-405): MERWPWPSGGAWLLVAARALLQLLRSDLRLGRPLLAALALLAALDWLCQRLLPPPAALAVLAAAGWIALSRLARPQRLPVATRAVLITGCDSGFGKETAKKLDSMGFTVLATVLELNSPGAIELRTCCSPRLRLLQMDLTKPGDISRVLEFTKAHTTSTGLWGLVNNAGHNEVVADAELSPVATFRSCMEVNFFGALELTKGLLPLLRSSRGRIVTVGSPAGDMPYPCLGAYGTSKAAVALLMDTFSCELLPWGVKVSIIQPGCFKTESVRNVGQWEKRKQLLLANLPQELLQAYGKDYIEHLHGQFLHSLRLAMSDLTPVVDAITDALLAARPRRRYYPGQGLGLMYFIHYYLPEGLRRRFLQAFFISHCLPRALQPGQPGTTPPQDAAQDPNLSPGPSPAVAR
# Procedure: as §1
# Reactions were initiated by simultaneously adding 10 μl of cell lysate and 12 μl of TS2 buffer containing the appropriate concentration of the inhibitory compound to be tested, NAD^+, 30 nCi of [1,2,6,7-^3H]-cortisol and unlabeled cortisol. […] Stock solutions of the inhibitors in methanol or DMSO were diluted in TS2 buffer to yield the appropriate concentrations, whereby the concentration of methanol or DMSO in the reactions were kept below 0.1%. Control reactions with or without 0.1% of the solvent were performed. Incubation was at 37° C. for 10 min with shaking, reactions were terminated by adding 10 μl of stop solution containing 2 mM of unlabeled cortisol and cortisone dissolved in methanol. The conversion of radiolabeled cortisol was determined by separation of cortisol and cortisone using TLC and a solvent system of 9:1 (v/v) chloroform:methanol, followed by scintillation counting.
# as §2, §3, §4
# human 11β-HSD2 [3] = molecular target: T3, human 11β-HSD2; experiment: 11β-HSD2 activity in intact transfected HEK-293 cells; type: cell-based; conditions: read-out: IC50 for 11β-HSD2 (determined in intact transfected HEK-293 cells)
# Procedure: (§5) Human 11β-HSD1 and 11β-HSD2 activities were assessed in intact stably transfected HEK-293 cells. Per well of a 96-well plate 30,000 cells were seeded, followed by growth for 24 h in steroid-free DMEM medium. The total volume was 30 μl and contained 100 nM of radiolabeled cortisol or cortisone as substrate and the corresponding inhibitor at a final concentration between 0-200 μM. The reaction was performed in steroid-free medium in the absence of exogenous cofactor for 1 to 3 h at 37° C. The solvent was below 0.1% (DMSO). Reactions were stopped by adding unlabeled cortisol and cortisone dissolved in methanol (2 mM final). Steroids were separated by TLC and conversion determined by scintillation counting.
# as §2
# human 11β-HSD1 [4] = molecular target: T2, human 11β-HSD1; experiment: 11β-HSD1 activity in intact transfected HEK-293 cells; type: cell-based
# Procedure: as §5, §2
# 17β-HSD2 = molecular target: T4, 17β-HSD2 (Homo sapiens, UniProt P37059); experiment: Inhibition of 17β-HSD2; type: biochemical
# T4 sequence (P37059 1-387): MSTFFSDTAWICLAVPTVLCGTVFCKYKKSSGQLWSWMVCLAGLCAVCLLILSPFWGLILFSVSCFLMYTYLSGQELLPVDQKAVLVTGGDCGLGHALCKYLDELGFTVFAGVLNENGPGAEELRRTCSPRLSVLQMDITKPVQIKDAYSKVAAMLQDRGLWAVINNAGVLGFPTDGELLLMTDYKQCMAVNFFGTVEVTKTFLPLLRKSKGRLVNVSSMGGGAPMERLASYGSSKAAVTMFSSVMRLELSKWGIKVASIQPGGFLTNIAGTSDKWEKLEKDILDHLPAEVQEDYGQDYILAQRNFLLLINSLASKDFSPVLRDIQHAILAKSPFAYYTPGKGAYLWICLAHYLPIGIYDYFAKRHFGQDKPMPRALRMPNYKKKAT
# human 11β-HSD1 [5] = molecular target: T2, human 11β-HSD1; experiment: 11β-HSD1 reductase activity (cortisone to cortisol) in lysates of stably transfected HEK-293 cells; type: biochemical; conditions: read-out: 11β-HSD1 % of control
# T2 sequence (P28845 whole entry): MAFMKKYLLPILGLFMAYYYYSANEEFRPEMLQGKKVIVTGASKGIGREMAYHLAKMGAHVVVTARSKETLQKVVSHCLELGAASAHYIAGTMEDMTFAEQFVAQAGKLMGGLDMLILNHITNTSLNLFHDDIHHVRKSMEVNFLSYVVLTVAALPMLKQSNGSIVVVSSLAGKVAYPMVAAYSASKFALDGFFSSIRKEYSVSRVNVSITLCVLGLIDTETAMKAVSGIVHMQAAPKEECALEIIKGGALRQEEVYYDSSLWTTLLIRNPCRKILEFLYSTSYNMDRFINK
smiles,measurement,setting,value
"CC(=O)OC1CC[C@]2(C)C3=C(C(=O)C[C@H]2C1(C)C)[C@]1(C)CCC(C(C)CCC(=O)O)[C@@]1(C)CC3=O (stereo partly drawn) [BNW16, 4-((5R,10S,13R,14R)-3-Acetoxy-4,4,10,13,14-pentamethyl-7,11-dioxo-2,3,4,5,6,7,10,11,12,13,14,15,16,17-tetradecahydro-1H-cyclopenta[a]phenanthren-17-yl)-pentanoic acid]",IC50,17β-HSD1,> 30 µM
same,inhibition of 17β-HSD1 (in words),17β-HSD1,no inhibition
same,remaining activity at 20 µM,human 11β-HSD1 [1],2.7%
same,IC50,"human 11β-HSD1 [1]; IC 50 11β-HSD1, determination 1",149 nM
same,IC50,"human 11β-HSD1 [1]; IC 50 11β-HSD1, determination 2",168 nM
same,IC50,"human 11β-HSD1 [1]; IC 50 11β-HSD1, determination 3",114 nM
same,inhibition of 11β-HSD2 (in words),human 11β-HSD2 [2],no inhibition
same,remaining activity at 20 µM,human 11β-HSD2 [2],27.4%
same,IC50,"human 11β-HSD2 [2]; experiment 2, read-out: IC 50 11β-HSD2, determination 2",4.04 µM
same,IC50,"human 11β-HSD2 [2]; experiment 3, read-out: IC 50 11β-HSD2, determination 3",3.87 µM
same,IC50,human 11β-HSD2 [3],> 50 µM
same,IC50,human 11β-HSD1 [4],2320 ± 330 nM
same,IC50,"human 11β-HSD1 [4]; text b14, read-out: IC50 for 11β-HSD1 determined in intact transfected HEK-293 cells",410 ± 80 nM
same,IC50,17β-HSD2,28.3 ± 5.5 µM
same,inhibition of 17β-HSD2 (in words),17β-HSD2,no inhibition
CCC(Sc1nnc(-c2ccc(OC)c(OC)c2)c(-c2ccc(OC)c(OC)c2)n1)C(=O)N(CC)CC (centres unmarked) [BNW30],remaining activity at 20 µM,human 11β-HSD1 [1],48.4%
same,remaining activity at 20 µM,human 11β-HSD2 [2],140%
Cc1n[nH]c(O)c1C(c1ccc(-c2ccc(Cl)c(C(=O)O)c2)o1)c1c(O)n[nH]c1C [BNW5],remaining activity at 20 µM,human 11β-HSD1 [1],69.8%
same,remaining activity at 20 µM,human 11β-HSD2 [2],97.5%
"COc1ccc(CCNC(=O)C23CCC(C)(C(=O)C2=O)C3(C)C)cc1OC (centres unmarked) [BNW7, 4,7,7-Trimethyl-2,3-dioxo-bicyclo[2.2.1]heptane-1-carboxylic acid [2-(3,4-dimethoxy-phenyl)-ethyl]-amide]",inhibition of 17β-HSD1 (in words),17β-HSD1,did not inhibit
same,inhibition of 17β-HSD1 (in words),17β-HSD1; listed as 7,no inhibition
same,remaining activity at 20 µM,human 11β-HSD1 [1],9.6%
same,IC50,"human 11β-HSD1 [1]; cell lysates, 7 inhibitor concentrations at factor 2 intervals, experiment 1, read-out: IC 50 11β-HSD1, determination 1",1950 nM
same,IC50,"human 11β-HSD1 [1]; cell lysates, 7 inhibitor concentrations at factor 2 intervals, experiment 2, read-out: IC 50 11β-HSD1, determination 2",1910 nM
same,IC50,"human 11β-HSD1 [1]; cell lysates, 7 inhibitor concentrations at factor 2 intervals, experiment 3, read-out: IC 50 11β-HSD1, determination 3",2240 nM
same,inhibition of 11β-HSD2 (in words),human 11β-HSD2 [2],did not inhibit
same,remaining activity at 20 µM,human 11β-HSD2 [2],140%
same,inhibition of 11β-HSD2 (in words),human 11β-HSD2 [2]; listed as 7,no inhibition
same,IC50,"human 11β-HSD1 [4]; 11β-HSD1, intact HEK-293 cells, mean ± SD, read-out: IC50 in intact cells",550 ± 50 nM
same,inhibition of 17β-HSD2 (in words),17β-HSD2,did not inhibit
same,inhibition of 17β-HSD2 (in words),17β-HSD2; listed as 7,no inhibition
"CC1(C)[C@@H](OC(=O)CCC(=O)O)CC[C@]2(C)[C@H]3C(=O)C=C4[C@@H]5C[C@@](C)(C(=O)O)CC[C@]5(C)CC[C@@]4(C)[C@]3(C)CC[C@@H]12 [CBX, carbenoxolone]",remaining activity at 10 µM,human 11β-HSD1 [5],4.4%
Cc1cccc(C)c1C1C(SCC(=O)Nc2c(Cl)cccc2Cl)=NN=C1c1cccc([S+]([O-])N(C)C)c1 (centres unmarked) [BNW11],remaining activity at 20 µM,human 11β-HSD1 [1],70.1%
same,remaining activity at 20 µM,human 11β-HSD2 [2],121%
CCN(CC)S(=O)(=O)c1ccc(Cl)c(C(=O)Nc2nc3ccc(S(C)(=O)=O)cc3s2)c1 [BNW12],remaining activity at 20 µM,human 11β-HSD1 [1],85.4%
same,remaining activity at 20 µM,human 11β-HSD2 [2],132%
CCCCOc1ccc(C(=O)C2=C(O)C(=O)N(CCOC)C2c2cccnc2)c(C)c1 (centres unmarked) [BNW3],remaining activity at 20 µM,human 11β-HSD1 [1],60.3%
same,remaining activity at 20 µM,human 11β-HSD2 [2],53.6%
